Test results from patent US20250064945A1 (Arvinas Operations, Inc., priority 2021, published 2025).

Target: T1, BRM (Homo sapiens, UniProt P51531)
T1 construct: In-Cell Western Screen of BRM Degradation in SW1573 Cells; endogenous in cells; host or cells: SW1573 cells
Assay: Western blot / In-Cell Western screen of BRM degradation in SW1573 cells
Assay type: cell-based
Details: overnight (18-20 hours) treatment; for Dmax: read-out: Dmax (%) (% degraded)
Procedure: Western Blot Screen of BRM Degradation in SW1573 Cells
(§1) To assess BRM degradation (Dmax and DC50) cells were seeded at 8000/well in 96-well black/clear-bottom plates in 180 μL DMEM growth media (containing 1% pen-strep, 1% HEPES and 10% FBS) per well. Plates were incubated overnight to allow adhesion. The next morning cells were treated by adding 20 μL of 10× target compound concentration (1% DMSO) to appropriate wells and returned to incubator for overnight (18-20 hours). The final DMSO concentration was 0.1%.
For lysing, adherent cells were washed once with 100 μL of DPBS. Cells were lysed in 40 μL of 1× RIPA+HALT protease inhibitor on ice for 10 minutes and frozen until use at −80° C. Thawed lysates were cleaned by filtration in 1.2 µm filter plates, or alternatively, were spun clean at 2300 g at 4° C. for 30 minutes.
For blotting, for each Western sample 30 μL of lysate was added to 10 μL of 4×LDS sample buffer, then denatured at 95° C. for 5 minutes in the thermal cycler and placed on ice. Samples were loaded on 4-15% Tris/Glycine gels and run for 25 minutes at 250 constant volts in 1×Tris/Glycine buffer with 4 μL of ladder and 12 μL of each sample loaded for each blot. Protein was transferred from gels to NC with BioRad Turbo dry-transfer unit with the Turbo/midi default program. All blots were rinsed with ddH2O and blocked for 1 hour at room temperature in 5% BSA in TBST (0.1%) on rocker. Blots were exposed to primary antibody in 5% BSA in TBST (0.1%) overnight at 4° C. on rocker (1:1000 for BRM (Cell Signaling Tech. cat #11966) and 1:2000 for alpha-tubulin (Cell Signaling Tech. cat #3873), a control protein. Blot was washed with TBST (0.1%) three times for 5 minutes on rocker at room temperature. Secondary antibody was added, and blots were incubated on a room temperature rocker for 1 hour with 1:18,000 anti-rabbit-HRP and/or anti-mouse-HRP in 5% BSA in TBST (0.1%). Blots were washed three times in TBST (0.1%) for 5 minutes at room temperature on the rocker. Signal was developed with Femto Maximum Sensitivity substrate for 4 minutes and blots read on ChemiDoc™.
In-Cell Western Screen of BRM Degradation in SW1573 Cells
as §1, with “DC50),” for “DC50)”, “10×” for “10× target”, “compound” for “compound concentration”
For processing, the plates were removed from incubator, the media was removed, and immediately 200 μL of cold (4° C.) DPBS was added to all wells. DPBS was then removed, and 50 μL of 4% paraformaldehyde (PFA) in DPBS (4° C.) was added to all wells, and the plates were incubated at room temperature for 20 minutes. PFA was then removed, and 200 μL of TBS-T containing 0.5% Triton X-100 was added to all wells, and the plates were incubated at room temperature for 30 minutes. TBS-T containing 0.5% Triton X-100 was then removed, and 50 μL of Li-Cor blocking solution was added, and the plates were incubated at room temperature for a minimum of one hour. The blocking solution was removed, and 50 μL of Li-Cor blocking solution containing primary antibody cocktail was added (1:1000 for BRM (Cell Signaling Tech. cat #11966) and 1:2000 for alpha-tubulin (Sigma cat #T6074), a control protein. Plates were then placed in cold room until the next day.
The next day plates were washed three times with TBS-T, 200 μL per well. Fifty […] of secondary antibody cocktail in LI-COR blocking solution (anti-rabbit_800 nm and anti-mouse_680 nm) was added to all wells (diluted 1:5000). The plates were incubated at room temperature for at least one hour while protected from light. The plates were washed twice with TBS-T, 200 μL per well. […]

T1 sequence (P51531 whole entry): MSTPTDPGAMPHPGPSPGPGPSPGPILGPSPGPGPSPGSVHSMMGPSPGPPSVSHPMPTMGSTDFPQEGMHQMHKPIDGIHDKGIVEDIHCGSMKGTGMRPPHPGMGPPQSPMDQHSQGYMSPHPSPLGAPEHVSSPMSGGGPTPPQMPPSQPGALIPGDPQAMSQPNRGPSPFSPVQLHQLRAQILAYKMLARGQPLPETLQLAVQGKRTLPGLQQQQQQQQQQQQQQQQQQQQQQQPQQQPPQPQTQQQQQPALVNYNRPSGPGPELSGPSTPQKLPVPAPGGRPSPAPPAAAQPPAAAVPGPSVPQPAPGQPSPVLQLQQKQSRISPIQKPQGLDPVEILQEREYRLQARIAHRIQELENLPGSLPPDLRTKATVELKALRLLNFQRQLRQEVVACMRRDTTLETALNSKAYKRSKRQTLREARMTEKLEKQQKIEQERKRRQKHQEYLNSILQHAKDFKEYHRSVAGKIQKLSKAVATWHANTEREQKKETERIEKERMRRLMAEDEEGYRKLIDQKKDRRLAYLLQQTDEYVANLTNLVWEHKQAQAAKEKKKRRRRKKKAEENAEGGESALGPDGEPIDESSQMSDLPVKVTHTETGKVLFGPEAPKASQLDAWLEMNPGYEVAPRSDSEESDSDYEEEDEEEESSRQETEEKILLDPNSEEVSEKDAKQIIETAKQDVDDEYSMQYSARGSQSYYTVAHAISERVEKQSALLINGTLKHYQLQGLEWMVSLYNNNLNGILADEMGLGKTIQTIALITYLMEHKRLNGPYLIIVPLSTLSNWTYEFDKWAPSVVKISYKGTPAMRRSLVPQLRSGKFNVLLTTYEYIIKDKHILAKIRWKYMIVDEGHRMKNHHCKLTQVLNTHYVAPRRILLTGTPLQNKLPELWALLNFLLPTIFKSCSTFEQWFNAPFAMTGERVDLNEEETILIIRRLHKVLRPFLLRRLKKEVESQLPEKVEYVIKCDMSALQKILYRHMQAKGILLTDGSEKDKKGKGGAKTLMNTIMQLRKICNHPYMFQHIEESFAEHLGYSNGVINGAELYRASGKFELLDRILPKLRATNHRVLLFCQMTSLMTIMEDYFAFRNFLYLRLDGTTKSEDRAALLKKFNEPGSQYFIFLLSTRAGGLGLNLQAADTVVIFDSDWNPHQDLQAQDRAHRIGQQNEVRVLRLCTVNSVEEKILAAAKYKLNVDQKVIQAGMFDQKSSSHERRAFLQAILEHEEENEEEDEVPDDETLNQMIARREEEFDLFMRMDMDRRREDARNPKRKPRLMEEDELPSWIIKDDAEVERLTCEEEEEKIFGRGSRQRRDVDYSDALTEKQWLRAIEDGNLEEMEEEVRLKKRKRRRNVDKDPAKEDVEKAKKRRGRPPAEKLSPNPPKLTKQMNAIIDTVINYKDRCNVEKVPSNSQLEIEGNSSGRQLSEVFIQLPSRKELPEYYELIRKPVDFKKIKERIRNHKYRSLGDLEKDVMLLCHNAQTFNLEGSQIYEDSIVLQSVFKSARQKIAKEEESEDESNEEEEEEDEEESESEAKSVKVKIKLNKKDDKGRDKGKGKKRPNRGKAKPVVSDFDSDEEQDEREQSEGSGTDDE

| Structure (SMILES) | DC50 [nM] | Dmax [%] |
| --- | --- | --- |
| Cc1ncsc1-c1ccc([C@H](C)NC(=O)[C@@H]2C[C@@H](O)CN2C(=O)[C@@H](c2cc(N3CCC(CN4CCC(O[C@H]5C[C@H](Oc6cc(CC(F)c7cc(-c8ccccc8O)nnc7N)ccn6)C5)CC4)CC3)no2)C(C)C)cc1 (stereo partly drawn) [Compound 2, (2S,4R)-4-hydroxy-N-[(1S)-1-[4-(4-methyl-1,3-thiazol-5-yl)phenyl]ethyl]-1-[(2R)-3-methyl-2-{3-[4-({4-[(1r,3r)-3-[(4-{2-[3-amino-6-(2-hydroxyphenyl)pyridazin-4-yl]-2-fluoroethyl}pyridin-2-yl)oxy]cyclobutoxy]piperidin-1-yl}methyl)piperidin-1-yl]-1,2-oxazol-5-yl}butanoyl]pyrrolidine-2-carboxamide] | 2.5 to 10 | > 75 |
| CC(C)[C@@H](C(=O)N1C[C@H](O)C[C@H]1C(=O)N[C@@H](C)c1ccc(-c2ccnn2C)cc1)c1cc(OCCN2CCN(Cc3ccc(C/C=C/c4cn5cc(-c6ccccc6O)nc5nc4N)cc3)CC2)no1 [Compound 46, (2S,4R)-1-[(2R)-2-(3-{2-[4-({4-[(2E)-3-[7-amino-2-(2-hydroxyphenyl)imidazo[1,2-a]pyrimidin-6-yl]prop-2-en-1-yl]phenyl}methyl)piperazin-1-yl]ethoxy}-1,2-oxazol-5-yl)-3-methylbutanoyl]-4-hydroxy-N-[(1S)-1-[4-(1-methyl-1H-pyrazol-5-yl)phenyl]ethyl]pyrrolidine-2-carboxamide] | 2.5 to 10 | > 75 |
| Cc1ncsc1-c1ccc([C@H](C)NC(=O)[C@@H]2C[C@@H](O)CN2C(=O)[C@@H](c2cc(N3CCC(CN4CCC(O[C@H]5C[C@H](N6CCC(CC#Cc7cn8cc(-c9ccccc9O)nc8nc7N)CC6)C5)CC4)CC3)no2)C(C)C)cc1 [Compound 37, (2S,4R)-4-hydroxy-N-[(1S)-1-[4-(4-methyl-1,3-thiazol-5-yl)phenyl]ethyl]-1-[(2R)-3-methyl-2-{3-[4-({4-[(1r,3r)-3-(4-{3-[7-amino-2-(2-hydroxyphenyl)imidazo[1,2-a]pyrimidin-6-yl]prop-2-yn-1-yl}piperidin-1-yl)cyclobutoxy]piperidin-1-yl}methyl)piperidin-1-yl]-1,2-oxazol-5-yl}butanoyl]pyrrolidine-2-carboxamide] | < 2.5 | > 75 |
| Cc1ncsc1-c1ccc([C@H](C)NC(=O)[C@@H]2C[C@@H](O)CN2C(=O)[C@@H](c2cc(N3CCC(CN4CCC(O[C@H]5C[C@H](Cn6cnc(-c7cn8cc(-c9ccccc9O)nc8nc7N)c6)C5)CC4)CC3)no2)C(C)C)cc1 [Compound 43, (2S,4R)-4-hydroxy-N-[(1S)-1-[4-(4-methyl-1,3-thiazol-5-yl)phenyl]ethyl]-1-[(2R)-3-methyl-2-{3-[4-({4-[(1r,3r)-3-({4-[7-amino-2-(2-hydroxyphenyl)imidazo[1,2-a]pyrimidin-6-yl]-1H-imidazol-1-yl}methyl)cyclobutoxy]piperidin-1-yl}methyl)piperidin-1-yl]-1,2-oxazol-5-yl}butanoyl]pyrrolidine-2-carboxamide] | 2.5 to 10 | > 75 |
| Cc1ncsc1-c1ccc([C@H](C)NC(=O)[C@@H]2C[C@@H](O)CN2C(=O)[C@H](c2cc(OCCN3CCN(CCOc4cc(N5CCN(c6cc(-c7ccccc7O)nnc6N)CC56COC6)ccn4)CC3)no2)C(C)C)cn1 [Compound 16, (2S,4R)-1-[(2S)-2-{3-[2-(4-{2-[(4-{8-[3-amino-6-(2-hydroxyphenyl)pyridazin-4-yl]-2-oxa-5,8-diazaspiro[3.5]nonan-5-yl}pyridin-2-yl)oxy]ethyl}piperazin-1-yl)ethoxy]-1,2-oxazol-5-yl}-3-methylbutanoyl]-4-hydroxy-N-[(1S)-1-[6-(4-methyl-1,3-thiazol-5-yl)pyridin-3-yl]ethyl]pyrrolidine-2-carboxamide] | ≥ 30 |  |
| Cc1ncsc1-c1ccc([C@H](C)NC(=O)[C@@H]2C[C@@H](O)CN2C(=O)[C@@H](c2cc(OCCN3CCN(CCOc4cc(N5CCN(c6cc(-c7ccccc7O)nnc6N)CC56COC6)ccn4)CC3)no2)C(C)C)cc1 [Compound 15, (2S,4R)-1-[(2R)-2-{3-[2-(4-{2-[(4-{8-[3-amino-6-(2-hydroxyphenyl)pyridazin-4-yl]-2-oxa-5,8-diazaspiro[3.5]nonan-5-yl}pyridin-2-yl)oxy]ethyl}piperazin-1-yl)ethoxy]-1,2-oxazol-5-yl}-3-methylbutanoyl]-4-hydroxy-N-[(1S)-1-[4-(4-methyl-1,3-thiazol-5-yl)phenyl]ethyl]pyrrolidine-2-carboxamide] | < 2.5 | > 75 |
| Cc1ncsc1-c1ccc([C@H](C)NC(=O)[C@@H]2C[C@@H](O)CN2C(=O)[C@H](c2cc(N3CCC(O[C@H]4C[C@H](OCC#Cc5cn6cc(-c7ccccc7O)nc6nc5N)C4)CC3)no2)C(C)C)cc1 [Compound 34, (2S,4R)-4-hydroxy-N-[(1S)-1-[4-(4-methyl-1,3-thiazol-5-yl)phenyl]ethyl]-1-[(2S)-3-methyl-2-(3-{4-[(1r,3r)-3-({3-[7-amino-2-(2-hydroxyphenyl)imidazo[1,2-a]pyrimidin-6-yl]prop-2-yn-1-yl}oxy)cyclobutoxy]piperidin-1-yl}-1,2-oxazol-5-yl)butanoyl]pyrrolidine-2-carboxamide] | ≥ 30 |  |
| Cc1ncsc1-c1ccc([C@H](C)NC(=O)[C@@H]2C[C@@H](O)CN2C(=O)[C@@H](c2cc(N3CCC(CN4CCC(O[C@H]5C[C@H](n6cnc(CN7C8CCC7CN(c7cc(-c9ccccc9O)nnc7N)C8)c6)C5)CC4)CC3)no2)C(C)C)cc1 (relative stereo) [Compound 10, (2S,4R)-4-hydroxy-N-[(1S)-1-[4-(4-methyl-1,3-thiazol-5-yl)phenyl]ethyl]-1-[(2R*)-3-methyl-2-{3-[4-({4-[(1r,3r)-3-[4-({3-[3-amino-6-(2-hydroxyphenyl)pyridazin-4-yl]-3,8-diazabicyclo[3.2.1]octan-8-yl}methyl)-1H-imidazol-1-yl]cyclobutoxy]piperidin-1-yl}methyl)piperidin-1-yl]-1,2-oxazol-5-yl}butanoyl]pyrrolidine-2-carboxamide] | < 2.5 | > 75 |
| Cc1cnn(C)c1-c1ccc([C@H](C)NC(=O)[C@@H]2C[C@@H](O)CN2C(=O)[C@@H](c2cc(N3CCC(CN4CCC(O[C@H]5C[C@H](C#Cc6cn7cc(-c8ccccc8O)nc7nc6N)C5)CC4)CC3)no2)C(C)C)cc1 [Compound 40, (2S,4R)-N-[(1S)-1-[4-(1,4-dimethyl-1H-pyrazol-5-yl)phenyl]ethyl]-4-hydroxy-1-[(2R)-3-methyl-2-{3-[4-({4-[(1r,3r)-3-{2-[7-amino-2-(2-hydroxyphenyl)imidazo[1,2-a]pyrimidin-6-yl]ethynyl}cyclobutoxy]piperidin-1-yl}methyl)piperidin-1-yl]-1,2-oxazol-5-yl}butanoyl]pyrrolidine-2-carboxamide] | 2.5 to 10 | > 75 |
| CC(C)[C@@H](C(=O)N1C[C@H](O)C[C@H]1C(=O)N[C@@H](C)c1ccc(-c2ccnn2C)cc1)c1cc(N2CCC(CN3CCC(O[C@H]4C[C@H](N5CCC(C/C=C/c6cn7cc(-c8ccccc8O)nc7nc6N)CC5)C4)CC3)CC2)no1 [Compound 44, (2S,4R)-4-hydroxy-N-[(1S)-1-[4-(1-methyl-1H-pyrazol-5-yl)phenyl]ethyl]-1-[(2R)-3-methyl-2-{3-[4-({4-[(1r,3r)-3-{4-[(2E)-3-[7-amino-2-(2-hydroxyphenyl)imidazo[1,2-a]pyrimidin-6-yl]prop-2-en-1-yl]piperidin-1-yl}cyclobutoxy]piperidin-1-yl}methyl)piperidin-1-yl]-1,2-oxazol-5-yl}butanoyl]pyrrolidine-2-carboxamide] | < 2.5 | > 75 |
